Results from US20230174584A1, “Antibiotic Compounds” (priority 2019, published 2023).
In brackets after ≈: the same amount, converted by molar mass.

Assays:
Experiment in all cases: MIC assay
Assay type in all cases: cell-based, Enterococcus faecium
E. faecium E2365 = conditions: Enterococcus faecium, E2365
Method in brief: (§1)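 CLSI broth microdilution in TSB + 0.002% polysorbate 80, 10^6 CFU/mL inoculum, 2-fold compound dilutions, 24 h at 37° C with shaking (600 rpm). VISA, VRSA and Enterococcus inocula grown to 0.5 McFarland before dilution; vancomycin-sensitive S. aureus by direct colony suspension. MIC (μg/mL) as median of ≥ triplicates.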

E. faecium E0013 = conditions: Enterococcus faecium, E0013
Method in brief: as §1

E. faecium E8237 = conditions: Enterococcus faecium, E8237
Method in brief: as §1

E. faecium E2297 = conditions: Enterococcus faecium, E2297
Method in brief: as §1

E. faecium E7329 = conditions: Enterococcus faecium, E7329
Method in brief: as §1

E. faecium E7413 = conditions: Enterococcus faecium, E7413
Method in brief: as §1

E. faecium E1679 = conditions: Enterococcus faecium, E1679
Method in brief: as §1

E. faecium E1130 = conditions: Enterococcus faecium, E1130
Method in brief: as §1

E. faecium E8218 = conditions: Enterococcus faecium, E8218
Method in brief: as §1

E. faecium E7464 = conditions: Enterococcus faecium, E7464
Method in brief: as §1

E. faecium E0745 = conditions: Enterococcus faecium, E0745
Method in brief: as §1

E. faecium E7424 = conditions: Enterococcus faecium, E7424
Method in brief: as §1

E. faecium E0072 = conditions: Enterococcus faecium, E0072
Method in brief: as §1

E. faecium E2373 = conditions: Enterococcus faecium, E2373
Method in brief: as §1

E. faecium E0300 = conditions: Enterococcus faecium, E0300
Method in brief: as §1

E. faecium EO321 = conditions: Enterococcus faecium, EO321
Method in brief: as §1

E. faecium E6016 = conditions: Enterococcus faecium, E6016
Method in brief: as §1

E. faecium E0506 = conditions: Enterococcus faecium, E0506
Method in brief: as §1

E. faecium E7319 = conditions: Enterococcus faecium, E7319
Method in brief: as §1

E. faecium E7401 = conditions: Enterococcus faecium, E7401
Method in brief: as §1

E. faecium E8235 = conditions: Enterococcus faecium, E8235
Method in brief: as §1

**Q.** For CCCCCCCCCCNCCN[C@@]1(C)C[C@H](O[C@H]2[C@H](Oc3c4cc5cc3Oc3ccc(cc3Cl)[C@@H](O)[C@@H](NC(=O)[C@@H](CC(C)C)NC)C(=O)N[C@@H](CC(N)=O)C(=O)N[C@H]5C(=O)N[C@H]3C(=O)N[C@H](C(=O)N[C@H](C(=O)O)c5cc(O)c(CNCP(=O)(O)O)c(O)c5-c5cc3ccc5O)[C@H](O)c3ccc(c(Cl)c3)O4)O[C@H](CO)[C@@H](O)[C@@H]2O)O[C@@H](C)[C@H]1O [Telavancin, reference compound], which MIC (E. faecium E2365) is on record?
**A.** ≤ 0.008 µg/mL

**Q.** And the MIC (E. faecium E0013)?
**A.** 4 µg/mL (≈ 2.28 µM)

**Q.** And the MIC (E. faecium E8237)?
**A.** 16 µg/mL (≈ 9.11 µM)

**Q.** And the MIC (E. faecium E2297)?
**A.** 4 µg/mL (≈ 2.28 µM)

**Q.** And the MIC (E. faecium E7329)?
**A.** ≤ 0.008 µg/mL

**Q.** And the MIC (E. faecium E7413)?
**A.** 8 µg/mL (≈ 4.56 µM)

**Q.** And the MIC (E. faecium E1679)?
**A.** 16 µg/mL (≈ 9.11 µM)

**Q.** What about the MIC (E. faecium E1130) of the same molecule?
**A.** ≤ 0.008 µg/mL

**Q.** And the MIC (E. faecium E8218)?
**A.** ≤ 0.008 µg/mL

**Q.** What about the MIC (E. faecium E7464) of the same molecule?
**A.** ≤ 0.008 µg/mL

**Q.** And the MIC (E. faecium E0745)?
**A.** 4 µg/mL (≈ 2.28 µM)

**Q.** And the MIC (E. faecium E7424)?
**A.** ≤ 0.008 µg/mL

**Q.** And the MIC (E. faecium E0072)?
**A.** 2 µg/mL (≈ 1.14 µM)

**Q.** What about the MIC (E. faecium E2373) of the same molecule?
**A.** 8 µg/mL (≈ 4.56 µM)

**Q.** And the MIC (E. faecium E0300)?
**A.** 8 µg/mL (≈ 4.56 µM)

**Q.** And the MIC (E. faecium EO321)?
**A.** 16 µg/mL (≈ 9.11 µM)

**Q.** And the MIC (E. faecium E6016)?
**A.** 4 µg/mL (≈ 2.28 µM)

**Q.** And the MIC (E. faecium E0506)?
**A.** 4 µg/mL (≈ 2.28 µM)

**Q.** What about the MIC (E. faecium E7319) of the same molecule?
**A.** 8 µg/mL (≈ 4.56 µM)

**Q.** What about the MIC (E. faecium E7401) of the same molecule?
**A.** ≤ 0.008 µg/mL

**Q.** What about the MIC (E. faecium E8235) of the same molecule?
**A.** ≤ 0.008 µg/mL
